The results in this text go back to patent US20220133895A1, “CAMPTOTHECIN-BASED DIMER COMPOUND, ANTICANCER DRUG AND METHOD OF ELIMINATING CANCER STEM CELL” (HUAZHONG UNIVERSITY OF SCIENCE AND TECHNOLOGY, priority 2020, published 2022).

One data set deals with T1, IDO (Homo sapiens, UniProt P14902).
T1 construct: endogenous in cells; host or cells: HeLa cells stimulated with human IFN-γ
The data set can be described thus: In vitro IDO inhibitory activity in IFN-γ-stimulated Hela cells. The format is cell-based. Here is the method: The inhibitory activity of the compound CN on IDO in vitro was investigated.
Hela cells were plated with a 96-well plate at 4,000 cells/well in DMEM complete medium containing 80 ng/ml of human IFN-γ, and incubated with a series of DMEM medium containing CN or NLG at a concentration of 0 μM, 0.1 μM, 1 μM, 10 μM, and 100 μM for 24 hours after 12 hours. 150 ul culture medium was aspirated, 75 ul trichloroacetic acid aqueous solution (30% w/v) was added, incubated at 50° C. for 30 min, and centrifuged at 3000 rpm for 10 minutes. 100 ul of the supernatant was collected, 100 ul of p-dimethylaminobenzaldehyde glacial acetic acid solution (2%, w/v) was added, placed at room temperature for 10 minutes, and the absorption was detected at 492 nm.

Data set [1] has as its system mouse 4T1 breast cancer orthotopic tumor. Kind of data set: In vivo anti-tumor activity, intratumoral injection, 4T1 orthotopic model. Particulars: for tumor suppression rate: BALB/c mice, CPT 1 mg/kg or CN 2.4 mg/kg intratumoral, NLG 500 ug/mouse gavage.
Data set [2] has the same test system. Kind of data set: Effect on antitumor immune response (DC maturation, Treg) in 4T1 tumor mice. The format is in vivo. Particulars: for regulatory T cells (Treg) in tumors: flow cytometry CD3, CD4, CD25, FoxP3. From the text:
The effect of the compound CN on antitumor immune response is studied, the specific steps were proceeded as follows. The tumor and adjacent lymph nodes of the mice in Example 4 were stripped. […] The adjacent lymph nodes were squeezed through a 200-mesh screen to prepare a single cell suspension, and the maturation of lymph node dendritic cells (DC cells, CD11c, CD80, CD86) was studied with antibodies.
A general note: In flow cytometry, cells or beads pass a laser one at a time.

Data set [3] has as its system 4T1 (breast cancer) cells. The data set can be described thus: In vitro induction of immunogenic cell death. The format is cell-based, mouse. Particulars: 4T1 cells, 10 μM, 48 hours. The procedure: The in vitro activity of the compound CN in inducing immunogenic cell death was evaluated.
4T1 (breast cancer) cells were seeded into a 6-well plate at a density of 1×10^5 cells per well and cultured overnight. The cells were treated with PBS, CPT (camptothecin), NLG (IDO inhibitor), CPT+NLG, CN (all drug concentrations were 10 μM) for 48 hours. The supernatant was collected and cultured to detect the release of ATP and HMGB-1. The cells were trypsinized, then incubated with CRT antibody on ice for 30 minutes in the dark, and analyzed by flow cytometry. In addition, CRT eversion was also studied by immunofluorescence imaging. 4T1 cells were seeded into a confocal culture dish at a density of 1×10^5 cells per well and cultured overnight. The cells were treated with PBS, CPT (camptothecin), NLG (IDO inhibitor), CPT+NLG, CN (all drug concentrations were 10 μM) for 48 hours. The cells were washed twice with PBS and incubated with CRT antibody for 30 minutes. Washing was performed twice with PBS, and fixing was then performed with 4% paraformaldehyde. After washing was performed twice with PBS again, the nucleus was stained with DAPI for 30 minutes. After washing was performed twice, the cells were imaged with a confocal microscope.

A short description of data set [4]: Reduction responsiveness in GSH solution, by mass spectrometry. The conditions noted are these: 100 mM GSH aqueous solution, stirred 12 hours. The format is physicochemical. Here is the method:
Study on the reduction responsiveness of compounds was performed as follows.
A small amount of the compound CN was added to 100 mM GSH aqueous solution and stirred for 12 hours.

A further data set relates to cancer stem cells. Kind of data set: Effect on cancer stem cells (cell cycle, 3D tumor spheroids) from treated 4T1 tumors. The format is in vivo, mouse. Particulars: for G1-S cell cycle / dormancy of cancer stem cells: CD133, EdU, hoechst33342 flow cytometry. The procedure:
The effect of the compound CN on cancer stem cells is studied, the specific steps were proceeded as follows. In the single cell suspension prepared in Example 6, the cell cycle (CD133, EdU, hoechst33342) of cancer stem cells was stained with antibodies, and the dormancy of the cancer stem cells was analyzed by flow cytometry. […] Fibrinogen was diluted to 20 mg/mL with T7 buffer (pH 7.4, 50 mM Tris, 150 mM NaCl), and then mixed with the above cell suspension in equal volume. 1 μL of thrombin (0.1 U/μL) was added to the 96-well plate in advance, and 50 μL of the mixed cell suspension was added. […] On the seventh day, the cell pellets in the 96-well plate were photographed and counted. The particle size of tumor cell spheroids was measured, and the number of tumor cell spheroids was counted to characterize the stemness and tumor-forming ability of tumor cells.

Data set [5] concerns mouse 4T1 breast cancer orthotopic tumor. Kind of data set: Anti-tumor activity of CN@PHF, tail vein, 4T1 orthotopic model. The format is in vivo. The conditions noted are these: CN 2.4 mg/kg, days 1, 4, 7, 10. From the text: The anti-tumor activity of CN@PHF in the mouse 4T1 breast cancer orthotopic tumor model was investigated and the specific steps were proceeded as follows:
At the age of 6 weeks, 20 g female BALB/c mice were inoculated with 5×10^5 cells of mouse breast cancer 4T1 cell suspension into the fourth pair of left breast pads on the abdomen of female BALB/c mice to establish a mouse model of 4T1 tumor in situ. When the tumor volume in situ was about 100 mm^3, the mice were randomly divided into 5 groups, 10 mice in each group, and were injected with normal saline, CN, Taxol, Irinotecan, CN@PHF through the tail vein. The dose of CN was 2.4 mg/kg, and the concentrations of Taxol and Irinotecan were the same as the molar concentration of CN. The administration time on the first day was recorded as the first day, and then the above-mentioned doses were administered on the 4th, 7th, and 10th days. From the 1st day, the mouse body weight and tumor volume were measured every other day, and the tumor volume-time curve was drawn. The mice were sacrificed on the 19th day, the tumor in situ was removed, weighed, and photographed. Tumors were stained with HE and TUNEL to study tumor cell apoptosis and stained with Ki67 to study tumor cell proliferation.

For data set [6] the test system is unchanged. Kind of data set: Influence on the cancer stem cell niche, 4T1 orthotopic model. Particulars: tail vein, day 13, CD133, EdU, hoechst33342. The format is in vivo.
Method: At the age of 6 weeks, 20 g female BALB/c mice were inoculated with 5×10^5 cells of mouse breast cancer 4T1 cell suspension into the fourth pair of left breast pads on the abdomen of female BALB/c mice to establish a mouse model of 4T1 tumor in situ. […] The administration time on the first day was recorded as the first day, and then the above-mentioned doses were administered on the 4th, 7th, and 10th days. On the 13th day, 50 μL of Edu (8 mg/ml) was injected into the tumor. Three hours later, the mice were sacrificed, the tumor in situ was stripped and divided into two parts. […] Flow cytometric analysis of the cell cycle (CD133, EdU, hoechst33342) of cancer stem cells was carried out to investigate the effect of drugs on the dormancy of cancer stem cells.

SMILES strings stand for the structures.

T1 sequence (P14902 whole entry): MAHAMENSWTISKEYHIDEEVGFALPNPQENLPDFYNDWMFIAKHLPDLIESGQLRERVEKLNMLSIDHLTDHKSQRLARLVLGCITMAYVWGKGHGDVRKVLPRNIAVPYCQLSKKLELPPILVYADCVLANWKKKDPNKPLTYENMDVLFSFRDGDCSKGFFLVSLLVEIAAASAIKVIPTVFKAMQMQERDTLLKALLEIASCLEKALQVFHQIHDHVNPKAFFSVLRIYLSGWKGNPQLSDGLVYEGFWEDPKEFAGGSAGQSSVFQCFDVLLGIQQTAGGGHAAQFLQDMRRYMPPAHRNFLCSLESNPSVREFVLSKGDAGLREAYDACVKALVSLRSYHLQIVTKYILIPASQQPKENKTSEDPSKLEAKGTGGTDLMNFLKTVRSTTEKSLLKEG

In the case of `CC[C@@]1(OC(=O)OCSSCOC(=O)OC(CC2c3ccccc3-c3cncn32)C2CCCCC2)C(=O)OCc2c1cc1n(c2=O)Cc2cc3ccccc3nc2-1` (stereo partly drawn) [CN], the IC50 (in general, the concentration that inhibits the measured activity by half) against IDO is roughly 80 nM. Further, at IDO (HeLa, read-out: IDO inhibition rate), the inhibition (commonly the percentage by which the read-out fell short of the control) at 1 µM was roughly 100%. Further, the tumor suppression rate in data set [1] (days 1, 4, 7, 10) stood at 85%. Further, the tumor volume result in data set [1] (intratumoral injection, 2.4 mg/kg, days 1, 4, 7, 10) is given as “significantly smaller than that of the other groups”. The tumor elimination result in data set [1] (intratumoral injection, 8 mice per group, day 15) was “one tumor was completely eliminated”. Besides, in data set [1] (intratumoral injection, sacrificed day 15), the “weight of the tumor” value is “significantly lower than that of the other groups”. Further, the “regulatory T cells (Treg) in tumors” value in data set [2] is given as “reverse the increase in Treg caused by CPT”. The “DC maturation in lymph nodes adjacent to tumors” value in data set [2] (flow cytometry CD11c, CD80, CD86) is “increased significantly”. The “proportion of mature DC relative to CPT group” value in data set [2] (lymph nodes adjacent to tumors) is “about twice that of CPT group”. For the same compound, in data set [3], the “ATP release relative to CPT and CPT+NLG groups” value was 2-3 times; the “CRT eversion, confocal imaging” value is “more CRT eversion”; the “ability to induce CRT eversion relative to CPT group, flow cytometry” value is “about 1.5 times”; the “ability to induce HMGB-1” value is “significantly stronger than that of the other groups”. Moreover, the “reduction responsiveness (degradation products)” value in data set [4] is “degraded to the original camptothecin and NLG919”. Also, the “G1-S cell cycle / dormancy of cancer stem cells” value in the data set on cancer stem cells is reported as “significantly reduce the G1/S ratio”. For the same compound, in the data set with cancer stem cells (fibrin gel culture, seventh day), the “number and particle size of 3D spheres of tumor cells” value is recorded as “significantly lower than those in the other groups”. Besides, in data set [5], the tumor volume entry was “significantly smaller than the normal saline group and the positive drugs Taxol and Irinotecan groups”.

Take `CC[C@@]1(O)C(=O)OCc2c1cc1n(c2=O)Cc2cc3ccccc3nc2-1` [CPT, camptothecin]: the tumor suppression rate in data set [1] (days 1, 4, 7, 10) is 61.9%. Moreover, the “regulatory T cells (Treg) in tumors” value in data set [2] is given as “significant increase in Treg”. Further, in the data set with cancer stem cells, the “G1-S cell cycle / dormancy of cancer stem cells” value was “block the G1-S cell cycle of cancer stem cells”.

Turning to `CCc1c2c(nc3ccc(OC(=O)N4CCC(N5CCCCC5)CC4)cc13)-c1cc3c(c(=O)n1C2)COC(=O)[C@]3(O)CC` [Irinotecan], the “dormancy / cycle inhibition of cancer stem cells” value in data set [6] is “increase the dormancy of cancer stem cells”.
